Legend:
Format in all cases: physicochemical
[1] = Cocrystal screening by heating method without menthol (Comparative Example 6); design: key: A cocrystal was completely formed.; B: A mixture of a cocrystal and the host compound or guest compound was formed.; C: A cocrystal was not formed (a mixture of the host compound and the guest compound was formed); conditions: host carbamazepine, equimolar guest, no menthol, 4 hours at 80° C.
Experimental: (§1) Carbamazepine and a guest compound shown in Table 4 in an equimolar amount to carbamazepine were weighed and mixed using an agate mortar. At that time, particles having a large size to an extent that they could be distinguished through visual inspection were grinded on the agate mortar. 10 mg of this mixed powder was weighed and put into a test tube and heated for 4 hours in an oven at 80° C., and the obtained solids were subjected to powder X-ray diffraction measurement and thermal analysis.

[2] = Cocrystal screening by mixing and grinding method (Comparative Example 5); design: key: A cocrystal was completely formed.; B: A mixture of a cocrystal and the host compound or guest compound was formed.; C: A cocrystal was not formed (a mixture of the host compound and the guest compound was formed); conditions: host carbamazepine, equimolar guest, mixed/ground in agate mortar
Text: as §1, with “The” for “10 mg of this mixed powder was weighed and put into a test tube and heated for 4 hours in an oven at 80° C., and the”

[3] = Cocrystal screening by heat melting 1-menthol (Example 1), powder X-ray diffraction and thermal analysis; design: key to Cocrystal formation, Example 1: A cocrystal was completely formed.; B: A mixture of a cocrystal and the host compound or guest compound was formed.; C: A cocrystal was not formed (a mixture of the host compound and the guest compound was formed); conditions: host theophylline, equimolar guest, 1-menthol added, 4 hours at 80° C.
Experimental: Theophylline and a guest compound shown in Table 1 in an equimolar amount to theophylline were weighed and mixed using an agate mortar. […] Thereafter, the obtained mixed powder of theophylline, the guest compound, and 1-menthol was heated for 4 hours in an oven at 80° C., and the obtained solid was subjected to powder X-ray diffraction measurement and thermal analysis.

[4] = Cocrystal screening by heating method without menthol (Comparative Example 3); design: key: A cocrystal was completely formed.; B: A mixture of a cocrystal and the host compound or guest compound was formed.; C: A cocrystal was not formed (a mixture of the host compound and the guest compound was formed); conditions: host theophylline, equimolar guest, no menthol, 4 hours at 80° C.
Experimental: (§2) 3 mg (0.0167 mmoles) of theophylline and a guest compound shown in Table 1 in an equimolar amount (0.0167 mmoles) to theophylline were weighed and mixed using an agate mortar. At that time, particles having a large size to an extent that they could be distinguished through visual inspection were grinded on the agate mortar. 10 mg of this mixed powder was weighed and put into a test tube, followed by heating for 4 hours in an oven at 80° C. The obtained solid was subjected to powder X-ray diffraction measurement and thermal analysis.

[5] = Cocrystal screening by co-grinding method (Comparative Example 2); design: key: A cocrystal was completely formed.; B: A mixture of a cocrystal and the host compound or guest compound was formed.; C: A cocrystal was not formed (a mixture of the host compound and the guest compound was formed); conditions: host theophylline, equimolar guest, mixed/ground in agate mortar
Experimental: as §2, with “mortar.” for “mortar. 10 mg of this mixed powder was weighed and put into a test tube, followed by heating for 4 hours in an oven at 80° C.”, “solids were” for “solid was”

[6] = Cocrystal screening by slurry method (Comparative Examples 1-1 to 1-6), powder X-ray diffraction; design: key to Cocrystal formation, Comparative Example 1* / Cocrystal formation, Comparative Example 1-1 / Cocrystal formation, Comparative Example 1-2 / Cocrystal formation, Comparative Example 1-3 / Cocrystal formation, Comparative Example 1-4 / Cocrystal formation, Comparative Example 1-5 / Cocrystal formation, Comparative Example 1-6: A cocrystal was completely formed.; B: A mixture of a cocrystal and the host compound or guest compound was formed.; C: A cocrystal was not formed (a mixture of the host compound and the guest compound was formed); conditions: host theophylline; for Cocrystal formation, Comparative Example 1-6: slurry in acetone; for Cocrystal formation, Comparative Example 1-6 / Cocrystal formation, Comparative Example 1-2 / Cocrystal formation, Comparative Example 1-5 / Cocrystal formation, Comparative Example 1-3 / Cocrystal formation, Comparative Example 1-4 / Cocrystal formation, Comparative Example 1-1: room temperature 7 days; for Cocrystal formation, Comparative Example 1-2: slurry in ethanol; for Cocrystal formation, Comparative Example 1-5: slurry in ethyl acetate; for Cocrystal formation, Comparative Example 1-3: slurry in tetrahydrofuran; for Cocrystal formation, Comparative Example 1-4: slurry in toluene; for Cocrystal formation, Comparative Example 1-1: slurry in water; for Cocrystal formation, Comparative Example 1*: slurry summary: A if a cocrystal was formed in any one of Comparative Examples 1-1 to 1-6
Experimental: 3 mg (0.0167 mmoles) of theophylline and a guest compound shown in Table 1 in an equimolar amount (0.0167 mmoles) to theophylline were weighed and put into a glass container, to which was then added 60 μL of water. These were shaken at room temperature for 7 days, and the obtained residues were subjected to powder X-ray diffraction measurement. 3 mg (0.0167 mmoles) of theophylline and a guest compound shown in Table I in an equimolar amount (0.0167 mmoles) to theophylline were weighed and put into a glass container, to which was then added 60 μL of ethanol. These were shaken at room temperature for 7 days, and the obtained residues were subjected to powder X-ray diffraction measurement. 3 mg (0.0167 mmoles) of theophylline and a guest compound shown in Table 1 in an equimolar amount (0.0167 mmoles) to theophylline were weighed and put into a glass container, to which was then added 60 μL of tetrahydrofuran. This was shaken at room temperature for 7 days, and the obtained residues were subjected to powder X-ray diffraction measurement. 3 mg (0.0167 mmoles) of theophylline and a guest compound shown in Table 1 in an equimolar amount (0.0167 mmoles) to theophylline were weighed and put into a glass container, to which was then added 60 μL of toluene. These were shaken at room temperature for 7 days, and the obtained residues were subjected to powder X-ray diffraction measurement. 3 mg (0.0167 mmoles) of theophylline and a guest compound shown in Table 1 in an equimolar amount (0.0167 mmoles) to theophylline were weighed and put into a glass container, to which was then added 60 μL of ethyl acetate. These were shaken at room temperature for 7 days, and the obtained residues were subjected to powder X-ray diffraction measurement. 3 mg (0.0167 mmoles) of theophylline and a guest compound shown in Table 1 in an equimolar amount (0.0167 mmoles) to theophylline were weighed and put into a glass container, to which was then added 60 μL of acetone. These were shaken at room temperature for 7 days, and the obtained residues were subjected to powder X-ray diffraction measurement.

Compound	Cocrystal formation, Comparative Example 6 [1]	Cocrystal formation, Comparative Example 5 [2]	Cocrystal formation, Example 1 [3]	Cocrystal formation, Comparative Example 3 [4]	Cocrystal formation, Comparative Example 2 [5]	Cocrystal formation, Comparative Example 1-6 [6]	Cocrystal formation, Comparative Example 1-2 [6]	Cocrystal formation, Comparative Example 1-5 [6]	Cocrystal formation, Comparative Example 1-3 [6]	Cocrystal formation, Comparative Example 1-4 [6]	Cocrystal formation, Comparative Example 1-1 [6]	Cocrystal formation, Comparative Example 1* [6]
O=S(=O)(O)CCS(=O)(=O)O [Ethanedisulfonic acid]	B	C	A	A	A	A	A	A	A	A	C	A
O=C(O)CC(O)(CC(=O)O)C(=O)O [Citric acid]	B	C	A	B	C	C	C	A	C	C	C	A

— patent US20140045824A1, “METHOD FOR PRODUCING COMPLEX CRYSTAL AND METHOD FOR SCREENING COMPLEX CRYSTAL” (priority 2011, published 2014)
